Reference: patent publication US20250082781A1, “METHODS OF LOWERING BLOOD GLUCOSE AND TREATING TYPE 2 DIABETES BY ACTIVATION OF PDE4D3” (Salk Institute for Biological Studies, priority 2021, published 2025)

Assays:
pyruvate carboxylase = experiment: Hepatic pyruvate carboxylase (Pcx) activity assay; format: in vivo, mouse; conditions: HFD-fed adR1WT mice, FGF1 0.5 mg/kg
Procedure: Pcx activity was determined by malate dehydrogenase coupling method originally reported by Payne et al. (Payne and Morris, 1969). Briefly, mice were sacrificed by decapitation. Liver samples were rapidly frozen in liquid nitrogen within 5 seconds of excision designed to avoid loss of hepatic acetyl-CoA levels. Frozen liver samples were pulverized on dry ice and approximately 100 mg of tissues were homogenized with TissueLyzer in Pcx activity assay buffer (50 mM Tris pH8, 10 mM MgCl2, 10 mM NaHCO3). Homogenates were cleared by centrifugation at 14000 rpm for 10 minutes. Cleared supernatants were diluted in Pcx activity assay buffer to approximately 1 μg/ul. Approximately 5 μg protein was loaded onto 96-well plates and the total volume was brought up to 20 ul by Pcx activity assay buffer. Absorbance at 340 nm was monitored every 9 seconds at 37° C. immediately after the addition of 80 ul Pcx reaction buffer (50 mM Tris pH8, 10 mM MgCl2, 10 mM NaHCO3, 6.25 mM ATP, 0.125 mM NADH, 2.5 mM pyruvate, malate dehydrogenase 0.025 U/ml in Pcx activity assay buffer). Pcx activity was determined as the loss of absorbance at 340 nm over time normalized to protein concentration.

blood glucose levels = experiment: Blood glucose levels in ob/ob mice; format: in vivo, mouse
Procedure: Mice were kept in 12 h light/dark cycle in a temperature-controlled environment. Mice had free access to food and water unless noted otherwise. C57/B6 mice background was used unless noted otherwise. C57BL/6J and ob/ob (000632-B6. Cg-Lepob/J) male mice were obtained from Jackson Laboratory. PDE4D knock-out mice (034588-UCD) were obtained from MMRRC. For diet-induced obesity (DIO) studies, mice were fed a high fat diet (HFD) (60% fat, F3282; Bio-Serv) for minimum of 12 weeks to induce insulin resistance when diet-induced obese model is used. Insulin levels and blood glucose levels were monitored to confirm insulin resistance. To generate adipose-specific FGFR1 deletion, adiponectin-cre mice (B6; FVB-Tg (Adipoq-cre)1Evdr/J; Stock: 010803) were crossed to Fgfr1 flox/flox (B6.129S4-Fgfr1tm5.1Sor/J; Stock: 00767) mice. For AAV mediated expression of target proteins in adipose tissue, 5×10E+11 genomic copies of AAV were injected via tail vein or retro-orbital route.
Recombinant FGF1 (rFGF1) was dissolved in phosphate-buffered saline (PBS) at a concentration of 0.2 mg/ml and was injected subcutaneously at a 0.5 mg kg^−1 dose. Blood glucose was monitored at indicated time points after injection. For initial measurements (2-4 h) food was removed after injection to exclude any indirect effects stemming from anorexigenic effects of FGF1. PDE4 inhibitor roflumilast stock in DMSO was diluted at 1 mg/ml in 30% captisol, pH 10 and delivered to mice thorough oral gavage at 5 mg kg^−1 dose. PDE3 inhibitor cilostamide stock in DMSO was diluted at 2 mg/ml in 30% captisol and delivered through intraperitoneal injection at 10 mg kg^−1 dose.

PDE4D = experiment: Western blot of PDE4D phosphorylation in 3T3-L1 adipocytes; format: cell-based
Procedure: Tissues were lysed in cold lysis buffer (50 mM Tris, pH 7.5, 150 mM NaCl, 1% NP40, 0.5% NaDoc, 0.1% SDS, 5% glycerol, 1 mM EDTA, protease and phosphatase inhibitors (complete and PhosSTOP (Roche)) by homogenization by bead-beater for 30 s. Samples were cleared for 10 min at 18,000 g at 4° C. and the middle clear phase was transferred to new tubes. A second 30 min centrifugation was performed and the middle clear phase was transferred to new tubes. Five ul protein extract was used for BCA assay to determine protein concentration. Samples were boiled in Laemmli buffer. SDS-PAGE and blotting were performed using gradient gels and Trans-Blot Turbo Transfer System (Bio-Rad). Antibodies used were PDE4D (12918-1-AP, Proteintech), pHSL-660 (4126S, Cell signaling), HSL (4107S, Cell Signaling), tubulin (CP06, Millipore Sigma), and GFP (A01388, GenScript). PDE4D3-pS44 phospho-specific antibody was generated using PDE4D3-S44 FRRHpSWISFDVDNGTSAGR peptide (SEQ ID NO: 20) (Mackenzie et al., 2002) by Pocono Rabbit Farm, using 70-day rabbit antibody production protocol and purified via affinity purification. Primary antibodies were incubated for 2 h at room temperature (RT) or overnight (ON) at 4° C. Blots were developed using SuperSignal West Pico PLUS Chemiluminescent Substrate (ThermoFisher Scientific) and imaged with BioRad GelDoc system.

Substance: FGF1: Recombinant fibroblast growth factor 1 protein, dissolved in PBS, injected subcutaneously
- reduction in pyruvate carboxylase activity (pyruvate carboxylase): ~50%
- blood glucose, FGF1 co-administered with atglistatin (blood glucose levels; ad lib fed ob/ob mice, FGF1 0.5 mg/kg + atglistatin 120 mg/kg): no additive effects
- blood glucose (blood glucose levels; ad lib fed ob/ob mice, FGF1 0.5 mg/kg s.c. as single agent): robustly lowered blood glucose
- FGF1-induced reduction in glucose levels in mice overexpressing PDE4D3 (blood glucose levels; ob/ob mice with adAAV-PDE4D3, FGF1 0.5 mg/kg): greater reduction in glucose levels
- FGF1 glucose response in mice expressing the S44A mutant (blood glucose levels; ob/ob mice with adAAV-PDE4D3 S44A, FGF1 0.5 mg/kg): indistinguishable from control mice
- FGF1-induced phosphorylation of PDE4D3 in the S44A mutant (PDE4D; 3T3-L1 adipocytes infected with adAAV PDE4D3 S44A): lost
- S44 phosphorylation of PDE4D3 (PDE4D; 3T3-L1 cells overexpressing PDE4D3, absence and presence of isoproterenol): increased S44 phosphorylation
- PDE4D phosphorylation (PDE4D; isoproterenol-stimulated, FGF1 co-treatment 100 ng/ml): increased both the extent and duration of PDE4D phosphorylation
